# Source: PMC6687188, “Novel lactate dehydrogenase inhibitors with in vivo efficacy against Cryptosporidium parvum” (PLoS Pathogens, 2019)
# Read-outs that look alike come from different tables or passages of the source. Positions of bridges follow the written chain, without caps; N, C: chain ends. Non-standard residues stand in square brackets, D forms with d. Residues, ends and D or L forms follow the SMILES beside them. ξ: configuration not given here. *: point of attachment. ξNMePhe(4-NMe2) = CNC(Cc1ccc(N(C)C)cc1)C(=O)O; Picolinoyl(3-OH) = O=C(c1ncccc1O)*; ξPip(4-oxo) = O=C1CCNC(C(=O)O)C1; Phg = N[CH](C(=O)O)c1ccccc1; Abu = CC[CH](N)C(=O)O
# Molecular target: recombinant CpLDH protein (Cryptosporidium parvum, UniProt Q9GT92, F198L/K295E/R251K)
SMILES,MEAN CpLDH INHIBITION (%),"MEAN CpLDH INHIBITION (%) (20 μM compound, 10 mM pyruvate, 1 mM NADH, values below 0 = augmenters)"
O=c1cc(O)ccn1[C@@H]1O[C@H](CO)[C@@H](O)[C@H]1O [NSC126849],-22.36,
COC1=C(N)C(=O)c2nc(C)ccc2C1=O [NSC132493],-117.70,
O=c1ccc2ccc(CBr)cc2o1 [NSC99027],-71.89,
COC(=O)[C@@]12OC[C@]34[C@H]([C@@H](O)[C@@H]1O)[C@@]1(C)CC(=O)C(O)=C(C)[C@@H]1C[C@H]3OC(=O)[C@H](OC(=O)C=C(C)C)[C@@H]24 [NSC172924],-39.50,
Cc1[nH]c(=O)nc(N/N=C/c2ccc(Cl)cc2)c1C(=O)Nc1ccc(Cl)cc1 [NSC624947],-0.76,
CC[C@@]12CCCN3CC[C@]4(c5cccc(OC)c5N(C(C)=O)[C@@H]4CC1)[C@H]32 [NSC61811],-26.07,
COc1ccc(-n2/c(=N/C(=S)N(C)C)ss/c2=N\C(=S)N(C)C)cc1 [NSC622586],-55.77,
OC(CBr)C(O)C(O)C(O)CBr (stereo not drawn) [NSC616232],-42.37,
COc1ccc2cc(CN3CCC(C4CCN(Cc5ccc6cc(OC)ccc6c5)CC4)CC3)ccc2c1.Cl [NSC683792],-73.55,
COC(=O)c1ccc(NCc2cc(O)ccc2O)cc1 [NSC654705],-2.14,
Cc1ccc(S(=O)(=O)c2ccc([N+](=O)[O-])o2)cc1 [NSC697923],,-17.27
O=C1C(Cl)=C(N2CCN(C3=C(Cl)C(=O)c4ccccc4C3=O)CC2)C(=O)c2ccccc21 [NSC40341],-22.69,
COc1ccc(C(=O)/C(Br)=C\C(=O)[O-])cc1.[Na+] [NSC104801],-32.70,
O=Nc1ccc(O)c2ncccc12 [NSC3852],-37.64,
C=C(Cl)C(Cl)(CBr)CCC(Br)C(C)(C)Cl (stereo not drawn) [NSC662825],-7.35,
COc1ccc(NC2=NCCO2)c2c1CCCC2 [NSC663996],-51.63,
Cc1cc(N(CCOS(C)(=O)=O)CCOS(C)(=O)=O)ccc1C=Nc1ccc(-c2csc(-c3ccccc3)n2)c(Cl)c1 [NSC281613],-15.80,
O=[n+]1c2c(n([O-])c3ccccc31)-c1cccc3cccc-2c13 [NSC60309],-23.17,
COc1ccccc1Cc1nc(-c2ccccc2)nn(C2OC(COC(C)=O)C(OC(C)=O)C(OC(C)=O)C2OC(C)=O)c1=S (stereo not drawn) [NSC625873],-25.33,
COc1ccc(/C=C2\N=C(c3ccccc3)OC2=O)c(OCc2ccccc2)c1 [NSC262665],-17.00,
C=C(C)[C@@H]1CCc2c(O)c(O)c(=O)cc(C)c2C1 [NSC310618],-54.97,
Oc1cc2c3c(c1)c1cc4c(cc1c[n+]3CC2)OCO4.[Cl-] [NSC338259],-17.29,
O=C1C(Br)=C(Br)C(=O)c2ccccc21 [NSC618332],-7.70,
Nc1nc(SCc2ccccc2Cl)c2[nH]cnc2n1 [NSC36826],-1.63,

SMILES,MEAN CpLDH INHIBITION (%),"MEAN CpLDH INHIBITION (%) (20 μM compound, 10 mM pyruvate, 1 mM NADH, values below 0 = augmenters)"
CCN(CC)CCOC(=O)Cc1cccc2c(=O)cc(-c3ccccc3)oc12 [NSC293015],-3.81,
O=[N+]([O-])c1cccc2nc3ccccc3c(NCCCNc3c4ccccc4nc4cccc([N+](=O)[O-])c34)c12 [NSC690634],-61.23,
COc1ccc(O)c2c(=O)c3c(OC)cc4c(c3oc12)[C@@H]1C=CO[C@@H]1O4 [NSC178249],-31.06,
Cc1c(Cl)ccc2c1NC(=O)C2(O)C(C(=O)c1ccccc1)c1ccccc1 (stereo not drawn) [NSC635321],-39.51,
CN(C)c1ccc(/C=C/C(=O)[O-])cc1.CN(C)c1ccc(/C=C/C(=O)[O-])cc1.[Cu+2] [NSC643351],-4.10,
COc1cc([C@@H]2c3cc4c(c(O)c3C[C@H]3COC(=O)[C@@H]32)OCO4)cc(OC)c1OC [NSC24819],-66.99,
CCOC(=O)/C(=C/c1ccc(N(C)C)cc1)N(CC)CC [NSC643774],-24.42,
CC(=O)c1sc2[n+](c1C)C(=O)/C(=C\c1ccccc1Cl)S2 [NSC658285],-36.39,
CC1(C)NC(=O)N(CCCCCCN2C(=O)NC(C)(C)C2=O)C1=O [NSC376791],-26.30,
Cc1c(C(=O)C/C(=N/NC(=O)CC#N)C(N)=O)[n+](=O)c2ccccc2n1[O-] [NSC635542],-10.72,
COC(=O)NC1C(C)OC(OC2C/C=C(/C)C3C=CC4C(OC5CC(OC6CC(O)C(OC7CC(O)C(OC)C(C)O7)C(C)O6)C(O)C(C)O5)C(C)CC(C)C4C3(C)/C(O)=C3\C(=O)OC4(CC(C)C(CO)=CC4/C=C\2C)C3=O)CC1(C)[N+](=O)[O-] (stereo not drawn) [NSC363182],-79.07,
CC1=C\C(O)CC(=O)Cc2nc(co2)C(=O)N2CCC=C2C(=O)OC(C(C)C)C(C)/C=C/C(=O)NC/C=C\1.CCC1NC(=O)C(NC(=O)c2ncccc2O)C(C)OC(=O)C(c2ccccc2)NC(=O)C2CC(=O)CCN2C(=O)C(Cc2ccc(N(C)C)cc2)N(C)C(=O)C2CCCN2C1=O (stereo not drawn) [NSC125176] ({Picolinoyl(3-OH)}-T[Abu]P[ξNMePhe(4-NMe2)][ξPip(4-oxo)][Phg]; ester 1-C; configuration not given here),-0.47,
C(=N\NC1=NCCN1)/c1c2ccccc2c(/C=N/NC2=NCCN2)c2ccccc12 [NSC337766],-53.76,
O=S1(=O)CCN(c2ccccc2CC(c2c[nH]c3ccccc23)c2c[nH]c3ccccc23)CC1 [NSC35949],-34.03,
CC[C@](C)(O)C(=O)O[C@H]1C(=O)O[C@@H]2C[C@H]3C(C)=CC(=O)[C@@H](O)[C@]3(C)[C@H]3[C@@]4(O)OC[C@]32[C@@H]1[C@@H](C)[C@H]4O [NSC132791],-161.16,
COc1ccc(/C=C/c2cc(O)cc(O[C@@H]3O[C@H](CO)[C@@H](O)[C@H](O)[C@H]3O)c2)cc1O [NSC43321],-58.94,
COc1nc(C(Cl)(Cl)Cl)c(Cl)c(OC)c1Cl [NSC338720],0.02,
CCOC(=O)c1sc2[n+](c1C)C(=O)/C(=C/c1ccc([N+](=O)[O-])cc1)S2.[Cl-] [NSC658293],-21.86,
N#CCCN(CCC#N)c1ccc(C=Nc2ccc(F)cc2)cc1 [NSC620277],-46.45,
CC(C)CCCCCCCCCCCCC(=O)NCC(=O)NC1C(C)OC(Nc2ncnc3nc[nH]c23)C(O)C1O (stereo not drawn) [NSC268251],-8.04,
COCCOC1=C(Cl)C(=O)c2c(O)ccc(O)c2C1=O [NSC659997],-9.35,
CC1=C2C(=CO[C@H](C)[C@H]2C)C(=O)C(C(=O)O)=C1O [NSC186],-47.49,
N#CC(=S)Nc1ccc(F)cc1 [NSC369317],-8.49,
N#CCCN(CCC#N)c1ccc(/C=C2\N=C(c3cc([N+](=O)[O-])ccc3Cl)OC2=O)cc1 [NSC637916],-14.05,

SMILES,MEAN CpLDH INHIBITION (%),"MEAN CpLDH INHIBITION (%) (20 μM compound, 10 mM pyruvate, 1 mM NADH, values below 0 = augmenters)"
Br.COC1CN(C)C(=Nc2cccc3ccccc23)S1 (stereo not drawn) [NSC135996],-24.95,
O=C(CCc1ccccc1)On1nnc2ccccc2c1=O [NSC630374],-20.24,
CCCC(=O)[O-].[Na+] [NSC174280],-5.75,
COC1=C(C)C(=O)C2=C(C1=O)C(CO)N1C(C#N)C3CC4C(C1C2N1CCOC41)N3C (stereo not drawn) [NSC349644],-64.47,
CC(=O)OCCN1c2ccccc2Sc2cnccc21 [NSC168221],-24.94,
CCCC/C=C/C=C/C=C/CCCCCCCC(=O)OCC(COC(=O)CCCCCCC/C=C/C1C=CC(CCCC)C(C(=O)O)C1C(=O)O)OC(=O)CCCCCCC/C=C/C=C/C=C/CCCC.OCCNCO (stereo not drawn) [NSC643834],-1.59,
Cc1cc(C)c(NC(=O)/C=C/c2ccccc2)c(C)c1 [NSC191384],-34.30,
OC(CN1CCCCC1)c1ccc(/C=C/c2ccc(Cl)cc2)cc1 (stereo not drawn) [NSC26040],-70.84,
Cc1nc(Cl)c(C)c(Cl)n1 [NSC40212],-35.86,
C[C@]12CC[C@H](OC(=O)Cc3ccc(N(CCCl)CCCl)cc3)C[C@@H]1CC[C@@H]1[C@@H]2CC[C@]2(C)NC(=O)CC[C@@H]12 [NSC290205],-205.36,
CCOC(=O)/C=C/c1c(C)[nH]c(=O)[nH]c1=O [NSC159935],-51.31,
COc1cc(OC)c2c(C)cc(=O)oc2c1 [NSC688795],-40.28,
CN(C)c1ccc(/C=c2/sc3nc(=O)c(-c4ccccc4NC(=O)C(F)(F)F)nn3c2=O)cc1 [NSC623095],-151.18,
C[C@H]1O[C@@H](c2ccc3c(c2O)C(=O)C2=C(C3=O)[C@@]3(O)C(=O)C[C@](C)(O)C[C@@]3(O)C=C2)C[C@@H](O)[C@@H]1O [NSC184398],-31.06,
CC1=C(O)c2ccccc2C(=O)C1=O [NSC11897],-2.25,
CCOc1cccc(/C=N/N=C2\C(=O)Nc3c(Cl)cc(Cl)cc32)c1O [NSC329277],-1.09,
CN(Cc1cnc2nc(N)nc(N)c2n1)c1ccc(C(=O)N[C@@H](CCC(=O)O)C(=O)O)c2ccccc12 [NSC174121],-134.26,
CCC1=C(C[C@H]2NCCc3cc(OC)c(OC)cc32)C[C@H]2c3cc(OC)c(OC)cc3CCN2C1 [NSC129414],-16.26,
CC1=CC(=O)c2cccc(NC3=NCCO3)c21 [NSC664331],-15.78,
CCc1cccc(C(C)C)c1NC(=O)/C(=N\NC(N)=O)C(C(=O)OC)c1cnc2ccccc2n1 (stereo not drawn) [NSC642033],-12.26,
O=C(NC1=C(Cl)C(=O)c2ccccc2C1=O)C(=O)C(C(=O)c1ccc2ccccc2c1)C1OC(=O)c2ccccc21 (stereo not drawn) [NSC641233],-51.96,
O=C1c2ccccc2C(=O)C1C(c1ccc([N+](=O)[O-])cc1)C1C(=O)c2ccccc2C1=O [NSC643148],-12.75,
Cc1nc2c(nc1C)C(=O)c1ccccc1C2=O [NSC602617],-40.33,
COc1cc([C@@H]2c3cc4c(cc3C[C@H]3COC(=O)[C@@H]32)OCO4)cc(OC)c1OC [NSC403148],-8.59,
